# Laboratory results: patent publication US12617757B2, “Compounds and modules for inhibition of pre-miR-21 and their use in treatment of certain cancers” (University of Florida Research Foundation, Incorporated, priority 2019, dated 2026)
# Tests used:
# [1] = test system: Ifng, OAS1, RIG-I, MDA5 mRNAs; assay: RT-qPCR of antiviral innate immune response mRNAs in MDA-MB-231 cells; assay type: cell-based, human
# Procedure: Cell culture compound treatment and transfection. For treatment with compounds, stocks in DMSO or water were diluted in growth media and added to cells for 24-72 h. For transfection of plasmid DNA to overexpress the miR-21 hairpin precursor in pcDNA3.1 (Addgene 21114) or pcDNA3-RNaseL (R. H. Silverman, Cleveland Clinic^24) in 24-well plates, Lipofectamine 2000 was used according to the manufacturer's protocol. After transfection, the medium was removed and replaced with growth medium containing compound prepared as described above. For transfection of a control (Santa Cruz Biotechnology: sc-37007) or RNase L targeting siRNA (Santa Cruz Biotechnology: sc-45965), Lipofectamine RNAiMAX Reagent was used for transfection of oligonucleotides, including 2′-5′ A4, according to the manufacturer's protocol.
# IFN-γ = IFN-γ ELISA of MDA-MB-231 supernatant; assay type: cell-based, human
# Procedure: Measurement of IFN-γ: The MDA-MB-231 cells were plated into a 24-well plate and allowed to grow to 70% confluency. Cells were transfected with 2′-5′ A4 using Lipofectamine RNAiMAX (Life Technologies). Alternatively, MDA-MB-231 cells were mock transfected and treated with vehicle (DMSO) or 5 (5, 50, 500, 5000 nM). Cell culture supernatant was removed at 24 h. The Human IFN-γ ELISA Kit (Bon Opus Biosciences: BE010020) was used to measure interferon gamma levels from the supernatants, per the manufacturer's instructions.
# MDA-MB-231-Luc cells = assay: In vivo MDA-MB-231 lung metastasis model in NOD/SCID mice; design: species or system mouse; settings: 10 mg/kg; for lung nodules / metastasis to lung: 6 weeks
# Procedure: FIGS. 46A-46C. In vivo mouse weights and Scrambled FISH staining of lung nodules with 5 treatment. […] Treatment of mice with 10 mg/kg of 5 started after 6 days of tumor cell injection. […] Dashed line indicates normalized signal intensity in vehicle samples.
# Intravenous delivery of MDA-MB-231 cells to mice is a model of breast cancer metastasis and metastatic behavior can be affected by inhibition of miR-21, S. Yang, J. J. Zhang, X.-Y. Huang, Mouse models for tumor metastasis. Methods Mol. Biol. 928, 221-228 (2012).
# pre-miR-21 = assay: Measurement of catalytic activity in MDA-MB-231 cells; assay type: cell-based, human
# Procedure: Measurement of Catalytic Activity. The MDA-MB-231 cells were plated into a 24-well plates (Corning). At ˜80% confluency, the media was aspirated and the cell monolayer was washed with 1×DPBS. Cells were then incubated with 5 (500 nM) or vehicle (DMSO) diluted in cell culture medium for 24 h. Cells were then lysed using 250 μL of RNA Lysis Buffer from a Quick-RNA MiniPrep Kit (Zymo Research). A 100 μL aliquot was transferred to black, non-binding surface, half area 96-well plates (Corning). Fractions of untreated cell lysate were combined and used to generate a standard curve of 5 in cell lysate, by spiking in known concentrations of 5. Fluorescence intensity (Ex: 345 nm, Em: 460 nm) was then measured on a Molecular Devices SpectraMax M5 plate reader to determine compound concentration in cell lysate. Using the generated standard curve, the concentration of 5 in the […] cell lysate aliquot was then used to extrapolate the amount of 5 in pmol in the full 250 μL volume.
# RNA was extracted from the cell lysates, followed by RT-qPCR as described above. A standard curve was generated for the pre-miR-21 WT transcript using in vitro transcribed pre-miR-21 (10 ng, 1 ng, 0.1 ng, 0.01 ng, 0.001 ng, 0.0001 ng, 0 ng) completed with each run to accurately calibrate Ct values. The amount of cleaved pre-miR-21 was then calculated by taking the difference between the pmol of pre-miR-21 in untreated samples and the pmol of pre-miR-21 in 5-treated samples. Catalytic activity, or turnover, was calculated by taking the ratio of the pmol of cleaved pre-miR-21 and the pmol of 5 in the sample.
smiles,measurement,setting,value
CCCN(CC(=O)N(CCC)CC(=O)N(CCC)CC(=O)N(CC(=O)NCCOCCOCCOCCOc1ccc(C=C2SC(Nc3ccccc3)=C(C(=O)OCC)C2=O)cc1O)Cc1cn(CCCNC(=O)CCCOc2ccc(-c3nc4cc(-c5ccc(N6CCN(C)CC6)cc5)ccc4[nH]3)cc2)nn1)C(=O)CN(Cc1cn(CCCNC(=O)CCCOc2ccc(-c3nc4cc(-c5ccc(N6CCN(C)CC6)cc5)ccc4[nH]3)cc2)nn1)C(C)=O [Compound 5],levels of mRNAs associated with the antiviral innate immune response,"[1]; 5 50 nM, 2′-5′ A4 500 nM transfected",No upregulation
same,modulation of innate immunity biomarkers (RT-qPCR and ELISA),[1]; MDA-MB-231,No significant changes were observed
same,IFN-7 ELISA,IFN-γ,no activation of the innate antiviral immune response
same,weight changes compared to vehicle-treated mice,"MDA-MB-231-Luc cells; over 42 days, NOD/SCID mice",did not cause significant weight changes
same,PDCD4 in lung nodule tissue sections,MDA-MB-231-Luc cells; q.o.d.,increased PDCD4 levels
same,hematoxylin and eosin (HE) staining of lung tissue,MDA-MB-231-Luc cells; q.o.d.,decreased hematoxylin and eosin (HE) staining
same,mature miR-21 in lung nodule tissue (FISH),MDA-MB-231-Luc cells; q.o.d.,decreased mature miR-21
same,pre-miR-21 in lung nodule tissue (FISH),MDA-MB-231-Luc cells; q.o.d.,decreased
same,lung nodules / metastasis to lung,MDA-MB-231-Luc cells; q.o.d.,decreased lung nodules
same,lung nodules / metastasis to lung,"MDA-MB-231-Luc cells; q.o.d., listed as Formula 5",inhibited breast cancer metastasis to lung
same,PDCD4 in lung nodule tissue sections,"MDA-MB-231-Luc cells; q.o.d., listed as Formula 5",increase in PDCD4 protein expression
same,mature miR-21 in lung nodule tissue (FISH),"MDA-MB-231-Luc cells; q.o.d., listed as Formula 5",diminished
same,pre-miR-21 in lung nodule tissue (FISH),"MDA-MB-231-Luc cells; q.o.d., listed as Formula 5",diminished
same,tolerability,"MDA-MB-231-Luc cells; intraperitoneal injection, q.o.d.",well tolerated
same,Average pre-miR-21,"pre-miR-21; 500 nM, 24 h, MDA-MB-231, mean ± s.d. (n = 6)",16 ± 3.8 pmol
same,Cleaved pre-miR-21,"pre-miR-21; 500 nM, 24 h, difference untreated minus treated, mean ± s.d.",68 ± 6.7 pmol
same,Turnovers,"pre-miR-21; 500 nM, 24 h, ratio Cleaved pre-miR-21 / 5 Detected, mean ± s.d.",26 ± 2.5
same,moles of pre-miR-21 cleaved by one mole of compound,pre-miR-21; MDA-MB-231,26 mol
